The values that follow come from US20130231366A1, “Use of a Novel Alpha-7 Nachr Antagonist to Suppress Pathogenic Signal Transduction in Cancer and Aids” (UNIVERSITY OF KENTUCKY RESEARCH FOUNDATION, priority 2008, published 2013).

Where two headings read alike, the source gives them in different places.

Holding throughout (assay type): cell-based
Experiment [1] deals with Type II cells in rat medial septum. Put plainly: Patch-clamp recording of ACh-evoked responses of medial septal neurons, Type II cells. On the procedure:
(§1) All procedures involving rats were approved by the University of Florida IACUC and were in accord with the NIH Guide for the Care and Use of Laboratory Animals. Male Sprague Dawley rats (post-natal day 12-25) were anesthetized with Halothane (Halocarbon Laboratories, River Edge N.J.) and swiftly decapitated. Transverse ([…]) whole brain slices were prepared using a vibratome (Pelco, Redding, Calif.) and then placed in a high Mg^2+/low Ca^2+ ice-cold artificial cerebral spinal fluid (ACSF) containing (in mM) 124 NaCl, 2.5 KCl, 1.2 NaH2PO4, 2.5 MgSO4, 10 D-glucose, 1 CaCl2, and 25.9 NaHCO3, saturated with 95% O2-5% CO2. Slices were incubated at 30° C. for 30 minutes and then left at room temperature until they were transferred to a submersion chamber (Warner Instruments, Hamden, Conn.) for recording. During experiments, slices were perfused at a rate of 2 ml/min with normal ACSF containing (in mM) 126 NaCl, 3 KCl, 1.2 NaH2PO4, 1.5 MgSO4, 11 D-glucose, 2.4 CaCl2, 25.9 NaHCO3, and 0.004 atropine sulfate, saturated with 95% 02-5% CO2 at 30° C. Cells were visualized with infrared differential interference contrast microscopy using a Nikon E600FN microscope. Patch-clamp recording pipettes were pulled from borosilicate glass (Sutter Instruments, Novato, Calif.) using a Flaming/Brown micropipette puller (P-97; Sutter Instruments, Novato, Calif.). Recording pipettes were filled with an internal solution of (in mM) 125K-gluconate, 1 KCl, 0.1 CaCl2, 2 MgCl2, 1 EGTA, 2 MgATP, 0.3 Na3GTP, and 10 HEPES (pH adjusted to 7.3 with KOH). The resistance of the recording pipette when filled with the internal solution was 3-5 MΩ. Cells were held at −70 mV, and a −10 in V/10 ms test pulse was used to determine access resistance, input resistance, and whole-cell capacitance. Cells with access resistances >60 MΩ or those requiring holding currents >200 pA were not included in the final analyses. Signals were digitized using an Axon Digidata1322A and sampled at 20 kHz on a Dell computer using Clampex version 8 or 9. Data analysis was done with Clampfit version 8 or 9 (Axon Instruments, Union City, Calif.), Excel 2000 (Microsoft, Seattle, Wash.), and GraphPad/Prism version 4.02 (Graphpad Software, San Diego, Calif.). Data are reported as mean±SEM. Statistical analyses were performed using two-tailed Student's t-test and one-way analysis of variance (ANOVA).
(§2) Single-barrel pipettes were pulled from borosilicate glass with an outer diameter (o.d.) and inner diameter (i.d.) of 1.5 mm and 0.86 mm, respectively (Sutter Instrument, Novato, Calif.). Pipette opening size of the single barrel was typically 2-3 μm. Double-barrel pipettes were pulled from borosilicate theta glass with an o.d. of 1.5 mm; pipette opening size was around 3-4 μm. The application pipette was usually placed within 10-15 μm of the cell soma.
(§3) In experiments in which AQA analogs were bath-applied, for each cell, four ACh baseline-evoked responses were recorded before bath application of the antagonist. ACh-evoked responses were then recorded for 13-22 min in the presence of the AQA analog. Each analog was bath-applied at a final concentration of 1 μm. In some septum experiments, dihydro-β-erythroidine (DHβE) was also bath-applied at a final concentration of 1 μm.
Neurons in rat medial septum vary in their nAChR-mediated responses. Some neurons (Type I cells) have relatively fast transient ACh-evoked responses, while others (Type II cells) have slower ACh-evoked responses (Thinschmidt et al., 2005a).
Background: In patch-clamp work, channel activity is measured electrically.

Experiment [2] addresses T1, rat α3β4 nAChRs (Rattus norvegicus, UniProt P04757+P12392).
T1 construct: expressed in transfected cells; host or cells: Xenopus laevis oocytes injected with subunit cRNAs
Put plainly: Voltage-clamp recording in Xenopus oocytes expressing rat α3β4 nAChRs. As to conditions: for recovery of responses to ACh alone after co-application: 5 min washout. On the procedure: (§4) For recombinant nAChR studies, mature (>9 cm) female Xenopus laevis African frogs (Nasco, Ft. Atkinson, Wis.) were used as a source of oocytes. Prior to surgery, frogs were anesthetized by placing the animal in a 1.5 g/l solution of MS222 (3-aminobenzoic acid ethyl ester) for 30 min. Oocytes were removed from an incision made in the abdomen. All procedures involving frogs were approved by the University of Florida Institutional Animal Care and Use Committee (IACUC).
(§5) Stage 5 oocytes were then isolated and injected with 50 n1 (5-20 ng) each of the appropriate subunit cRNAs. The rat neuronal nAChR clones were obtained from Dr. Jim Boulter (UCLA, Los Angeles, Calif.). After linearization and purification of cloned cDNAs, RNA transcripts were prepared in vitro using the appropriate mMessage mMachine kit from Ambion (Austin, Tex.).
(§6) Experiments were conducted using OpusXpress 6000A (Molecular Devices, Union City Calif.). […] Net charge values were used to report inhibitory effects. […] Means and standard errors (SEM) were calculated from the normalized responses of at least four oocytes for each experimental concentration. Concentration-response data were fit to the Hill equation assuming negative Hill slopes.

Experiment [3] has as its target T2, native α7 receptors on rat hippocampal interneurons (Rattus norvegicus, UniProt Q05941).
T2 construct: Native α7 Receptors on Rat Hippocampal Interneurons; from tissue; host or cells: interneurons of CA1 stratum radiatum in fresh rat brain slices
Put plainly: Patch-clamp recording of ACh-evoked responses of hippocampal interneurons in brain slices. The following applies: 1 μM bath-applied; for reduction of ACh-evoked responses: 1 mM ACh. On the procedure:
as §1, §2, §3
Stable ACh-evoked responses were obtained from hippocampal interneurons in fresh brain slices and then applied 1 μM tPyQB, tPy2PiB, or tkP3BzPB to the bath. […]

Experiment [4] deals with T3, rat α7 nAChRs (Rattus norvegicus, UniProt Q05941).
T3 construct: expressed in transfected cells; host or cells: Xenopus laevis oocytes injected with subunit cRNA
The experiment is described as follows: Voltage-clamp recording in Xenopus oocytes expressing rat α7 nAChRs. As to conditions: for Imax of ACh concentration-response in the presence of antagonist: ACh alone Imax=1; for recovery of responses to ACh alone after co-application: 5 min washout; for effect of voltage on inhibition of α7 receptors: −40 or −80 mV, 60 μM ACh; for inhibition at 1 µM: 1 μM tPyQB. On the procedure:
as §4, §5, §6

In experiment [5] the target is T4, rat α4β2 nAChRs (Rattus norvegicus, UniProt P09483+P12390).
T4 construct: expressed in transfected cells; host or cells: Xenopus laevis oocytes injected with subunit cRNAs
Put plainly: Voltage-clamp recording in Xenopus oocytes expressing rat α4β2 nAChRs. The following applies: for recovery of responses to ACh alone after co-application: 5 min washout. On the procedure: as §4, §5, §6

The subject of experiment [6] is Type I cells in rat medial septum. The experiment is described as follows: Patch-clamp recording of ACh-evoked responses of medial septal neurons, Type I cells. Here is the method:
as §1
Single-barrel pipettes were pulled from borosilicate glass with an outer diameter (o.d.) and inner diameter (i.d.) of 1.5 mm and 0.86 mm, respectively (Sutter Instrument, Novato, Calif.). […]
In experiments in which AQA analogs were bath-applied, for each cell, four ACh baseline-evoked responses were recorded before bath application of the antagonist. ACh-evoked responses were then recorded for 13-22 min in the presence of the AQA analog. […]

The mark [7] stands for this setting: 1 mM ACh+300 μM tkP3BzPB pressure co-application.

What is called IC50 is the concentration at which inhibition is half-maximal. Usually inhibition stands for the percentage by which the read-out fell short of the control.

T2 sequence (Q05941 23-502): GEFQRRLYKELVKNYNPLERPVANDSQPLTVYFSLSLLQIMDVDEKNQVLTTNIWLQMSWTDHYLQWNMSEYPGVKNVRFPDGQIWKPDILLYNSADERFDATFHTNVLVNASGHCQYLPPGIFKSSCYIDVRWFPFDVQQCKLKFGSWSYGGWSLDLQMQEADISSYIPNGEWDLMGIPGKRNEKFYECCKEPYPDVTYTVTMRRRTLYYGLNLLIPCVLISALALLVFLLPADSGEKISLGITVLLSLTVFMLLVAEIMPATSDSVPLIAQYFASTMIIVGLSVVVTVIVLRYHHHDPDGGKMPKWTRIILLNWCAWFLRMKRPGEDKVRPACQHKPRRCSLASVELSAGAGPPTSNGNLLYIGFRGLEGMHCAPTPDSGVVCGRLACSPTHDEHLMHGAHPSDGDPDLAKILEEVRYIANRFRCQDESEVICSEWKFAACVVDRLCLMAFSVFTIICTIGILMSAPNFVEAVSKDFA
T3 sequence (Q05941 23-502): as above
T1 sequence (P04757 26-499): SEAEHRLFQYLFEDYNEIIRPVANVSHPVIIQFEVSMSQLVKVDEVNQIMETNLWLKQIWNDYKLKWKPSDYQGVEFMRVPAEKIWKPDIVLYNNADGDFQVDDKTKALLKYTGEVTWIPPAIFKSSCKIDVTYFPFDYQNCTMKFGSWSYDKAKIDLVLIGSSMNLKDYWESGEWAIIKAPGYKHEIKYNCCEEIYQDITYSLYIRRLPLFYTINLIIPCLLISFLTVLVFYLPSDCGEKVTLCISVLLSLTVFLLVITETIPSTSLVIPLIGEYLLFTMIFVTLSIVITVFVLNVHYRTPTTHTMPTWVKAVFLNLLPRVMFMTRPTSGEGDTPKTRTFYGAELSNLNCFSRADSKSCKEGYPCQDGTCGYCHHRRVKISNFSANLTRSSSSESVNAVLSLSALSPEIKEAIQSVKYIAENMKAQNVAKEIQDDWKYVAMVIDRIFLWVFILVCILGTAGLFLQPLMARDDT
T1 sequence (P12392 21-495): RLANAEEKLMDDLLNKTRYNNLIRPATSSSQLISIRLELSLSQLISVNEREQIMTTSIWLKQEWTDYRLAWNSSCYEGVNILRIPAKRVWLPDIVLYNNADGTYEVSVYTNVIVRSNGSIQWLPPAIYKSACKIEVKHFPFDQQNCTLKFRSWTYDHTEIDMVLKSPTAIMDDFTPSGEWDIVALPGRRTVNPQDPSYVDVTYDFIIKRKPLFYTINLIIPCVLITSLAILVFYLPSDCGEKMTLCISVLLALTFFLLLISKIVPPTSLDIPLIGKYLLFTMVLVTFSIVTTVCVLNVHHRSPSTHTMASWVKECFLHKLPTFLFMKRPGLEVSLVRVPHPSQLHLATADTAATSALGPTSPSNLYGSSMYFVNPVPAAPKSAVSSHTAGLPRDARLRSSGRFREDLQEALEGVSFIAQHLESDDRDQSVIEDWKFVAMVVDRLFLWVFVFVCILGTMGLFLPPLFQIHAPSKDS
T4 sequence (P09483 31-630): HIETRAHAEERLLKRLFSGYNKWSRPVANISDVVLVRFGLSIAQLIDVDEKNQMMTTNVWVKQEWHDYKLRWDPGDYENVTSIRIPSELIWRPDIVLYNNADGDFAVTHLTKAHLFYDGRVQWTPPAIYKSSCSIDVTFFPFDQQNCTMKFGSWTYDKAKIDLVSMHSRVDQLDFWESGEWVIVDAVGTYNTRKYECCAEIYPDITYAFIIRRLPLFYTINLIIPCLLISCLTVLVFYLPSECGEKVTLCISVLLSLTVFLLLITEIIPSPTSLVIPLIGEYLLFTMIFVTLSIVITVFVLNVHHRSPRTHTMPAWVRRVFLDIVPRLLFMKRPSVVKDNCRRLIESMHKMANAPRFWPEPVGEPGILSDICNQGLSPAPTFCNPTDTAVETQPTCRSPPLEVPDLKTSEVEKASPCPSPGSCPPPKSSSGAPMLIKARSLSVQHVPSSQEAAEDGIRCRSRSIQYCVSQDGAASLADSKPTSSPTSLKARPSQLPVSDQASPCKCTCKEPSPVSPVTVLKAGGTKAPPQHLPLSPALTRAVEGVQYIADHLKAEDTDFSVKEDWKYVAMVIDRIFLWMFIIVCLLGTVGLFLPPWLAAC
T4 sequence (P12390 25-500): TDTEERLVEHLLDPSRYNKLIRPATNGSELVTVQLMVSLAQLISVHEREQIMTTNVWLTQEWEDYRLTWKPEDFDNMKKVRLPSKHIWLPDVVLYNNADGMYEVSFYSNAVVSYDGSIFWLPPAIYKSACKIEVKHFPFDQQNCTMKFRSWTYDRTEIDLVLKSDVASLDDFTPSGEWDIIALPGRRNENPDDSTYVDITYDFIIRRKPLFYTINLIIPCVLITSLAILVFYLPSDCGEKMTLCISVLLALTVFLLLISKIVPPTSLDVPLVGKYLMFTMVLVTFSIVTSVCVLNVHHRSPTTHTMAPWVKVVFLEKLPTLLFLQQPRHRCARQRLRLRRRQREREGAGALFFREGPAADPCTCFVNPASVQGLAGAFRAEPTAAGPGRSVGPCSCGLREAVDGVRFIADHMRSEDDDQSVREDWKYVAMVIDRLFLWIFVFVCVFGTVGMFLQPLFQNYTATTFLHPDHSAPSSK

With `CO[C@H]1CC=C2CCN3CCC4=C(CC(=O)OC4)[C@]23C1` [DHβE, dihydro-β-erythroidine, reference compound], in experiment [1] (1 μM DHβE bath-applied), the “blockade of residual ACh-evoked responses following tkP3BzPB bath application” value is listed as “largely sensitive to DHβE blockade”.
Turning to `Cc1cccc[n+]1CCCC#Cc1cc(C#CCCC[n+]2ccccc2C)cc(C#CCCC[n+]2ccccc2C)c1` [tPy2PiB, 1,3,5,-tri-{5-[1-(2-picolinium)]-pent-1-yn-1-yl}benzene tribromide], the IC50 in experiment [2] worked out at 10 ± 1.4 µM; in experiment [4] (read-out: IC50 values, α7) it was 6.3 ± 0.6 µM; in experiment [5], 103 ± 25 µM. For the same compound, the “recovery of responses to ACh alone after co-application” value (“recovery of responses to ACh alone” below) in experiment [2], in experiment [4] and in experiment [5] was “recovered fully” in each case. Besides, the “reduction of ACh-evoked responses” value in experiment [3] is “no significant reduction”. Moreover, the “inhibition of net charge responses” value in experiment [4] (3 μM tPy2PiB, holding potential −40 mV) was “no significant inhibition”. The “Imax of ACh concentration-response in the presence of antagonist” value in experiment [4] (3 μM tPy2PiB, net charge) is 0.84±0.02. Further, the inhibition at 3 µM in experiment [4] (read-out: inhibition of net charge responses, 3 μM tPy2PiB, holding potential −80 mV) amounted to 43 ± 3%. For the same compound, the “effect of voltage on inhibition of α7 receptors” value in experiment [4] is reported as “significant effect of voltage”.
Consider `C(#Cc1cc(C#CCCC[n+]2cccc3ccccc32)cc(C#CCCC[n+]2cccc3ccccc32)c1)CCC[n+]1cccc2ccccc21` [tPyQB, 1,3,5-tri-[5-(1-quinolinum)-pent-1-yn-1-yl]-benzene tribromide], for which the IC50 in experiment [2] was found to be 1 ± 0.1 µM; in experiment [4] (read-out: IC50 values, α7), 0.13 ± 0.02 µM; in experiment [5], 4.1 ± 1 µM. The “recovery of responses to ACh alone” value in experiment [2], in experiment [4] and in experiment [5] was “recovered fully” throughout. The “reduction of ACh-evoked responses” value in experiment [3] is given as “effectively reduced”. The “Imax of ACh concentration-response in the presence of antagonist” value in experiment [4] (300 nM tPyQB, net charge) came out at 0.40±0.01. Moreover, in experiment [4] (1 μM), the “inhibition of 60 μM ACh-evoked responses” value was “completely inhibit”. Further, the figures for the inhibition at 1 µM in experiment [4] (cells held at −40 mV) and in experiment [4] (−80 mV) were 83 ± 2% and 97.7 ± 0.1%, respectively. Besides, the “effect of voltage on inhibition of α7 receptors” value in experiment [4] is reported as “significant effect of voltage”.
Turning to `c1ccc(Cc2ccc[n+](CCCCCc3cc(CCCCC[n+]4cccc(Cc5ccccc5)c4)c(CCCCC[n+]4cccc(Cc5ccccc5)c4)cc3CCCCC[n+]3cccc(Cc4ccccc4)c3)c2)cc1` [tkP3BzPB, 1,2,4,5-tetra-{5-[1-(3-benzyl)pyridinium]pent-1-yl}benzenetetrabromide], in experiment [6] (1 μM bath-applied), the “initial evoked response remaining (peak amplitude) after bath application” value came to 12±0.6% and the “net-charge evoked response after bath application” value is “fully abolished”. Besides, in experiment [6] (setting [7]), the “average baseline net charge response after co-application” value is on record as 68±9% and the “average baseline peak response after co-application” value is 72±6%. In experiment [2], the 50% inhibitory concentration (IC50) was 9.2 ± 1.2 µM and the “recovery of responses to ACh alone” value was “no significant residual inhibition”. Besides, the “reduction of ACh-evoked responses” value in experiment [3] was “effectively reduced”. In experiment [3] (1 mM ACh pressure application), the “baseline net charge response remaining after bath application” value was found to be 0.4±0.7% and the “baseline peak response remaining after bath application” value worked out at 4±0.2%. In addition, in experiment [4] (100 nM, typical co-application protocol), the “inhibition of 60 μM ACh-evoked responses” value is “virtually no inhibition”. Besides, the “use-dependence of persistent inhibition” value in experiment [4] (3 μM for 20 s with or without 60 μM ACh, 5 minute washout) was “not use-dependent”. For the same compound, in experiment [4], the “recovery of responses to ACh alone” value is recorded as “decreasing recovery with increasing tkP3BzPB concentrations” and the “effect of voltage on inhibition of α7 receptors” value is “no significant difference”. The same compound returned a recovery time constant in experiment [4] (after 1 μM co-applied with 60 μM ACh) of 26.6 ± 0.8 min. In experiment [4] (after 5 minutes wash following application at increasing concentrations, read-out: IC50 estimated for recovery data), the IC50 is 1.9 ± 0.7 µM. Moreover, the “time constant of recovery” value in experiment [4] (after application of 3 μM alone, repeated applications of 60 μM ACh) was 76 ± 3 min. The inhibition at 0.1 µM in experiment [4] (read-out: inhibition of the ACh-evoked responses) was roughly 80%. Besides, in experiment [4] (simple co-application with 60 μM ACh, net charge, read-out: IC50 values, α7), the IC50 is 1 ± 0.1 µM. Also, in experiment [5], the concentration for half-maximal inhibition (IC50) was determined as 48 ± 11 µM and the “recovery of responses to ACh alone” value is recorded as “no significant residual inhibition”. Besides, in experiment [1] (1 μM bath-applied), the “baseline response (peak amplitude) at the end of the application” value is on record as 59±1% and the “net-charge evoked response, of the baseline response, after bath application” value stood at 79±2%. In addition, in experiment [1] (setting [7]), the “average baseline net charge response after co-application” value came to 93±10% and the “average baseline peak response after co-application” value was determined as 86±5%.
